What was measured:
BT474 = assay: CDI of example compounds and Lapatinib (ATPlite cell survival); assay type: cell-based; set-up: key: CDI = AB/(A×B); <1 synergistic; settings: compound 5 μM + Lapatinib 1 μM, 72 h; Lapatinib-sensitive human breast cancer cells; CDI<1 synergistic, <0.7 very significant, >1 antagonistic
Method: (§1) Cells: (BT474 and SK-BR3 are Lapatinib-sensitive human breast cancer cell strains; BT/LapR and SK/LapR are secondary Lapatinib-resistant human breast cancer cell strains upon Lapatinib stimulation; MDA-MB-361 and MDA-MB-453 are natural Lapatinib-resistant human breast cancer cell strains. BT474, MDA-MB-361, SK-BR3 and MDA-MB-453 are from American Type Culture Collection (ATCC))
(§2) In a 100 mm culture dish full of adherent cells, digestion with 1 ml 0.25% pancreatin (GIBCO) was carried out at 37° C. for 5 min, and the reaction was stopped with 2 ml medium (containing 10% FBS, GIBCO). The cells were dispersed and collected. After cell count, the cells were diluted to a concentration of 1×10^5 cells/ml, and were seeded to a 96-well plate at 50 μl/well, 5000 cell/well, 60 wells in total, PBS instead of cells was added to the wells of the outmost circle, and the incubation was carried out at 37° C. for 24 h for adherence.
(§3) For the sample group, samples to be tested were diluted with DMSO to a final concentration of 5 μM; to control wells, the medium containing the same concentration of solvent corresponding to the compound was added, the concentrations of the compounds were identical in each well, 5 wells in parallel were set for each concentration, 25 μL/well, and 25 μL medium was added to each well (for the combination group, 25 μL Lapatinib was added to reach a final concentration of 1 μM). The incubation was carried out at 37° C. for 72 h.
(§4) To each well, 50 μL ATPlite kit substrate solution was added. The plate was under shaking for 3 min, and was then placed in dark for 10 min. The lysis supernatant was drawn at 100 μL/well, and placed in a luminescent plate. The incubated luminescent plate was placed in an iluminescence apparatus, and the iluminescent value was read.
(§5) Data Processing Cell survival rate (%)=Experimental group RLU/control group RLU×100%
(§6) Coefficient of drug interaction (CDI) is used to evaluate the interaction of two drugs, CDI is calculated in accordance with the following formula: CDI=AB/(A×B)×100%. The calculation is performed according to the number of live cells (luminescent value), if CDI<1, the two drugs have a synergistic effect; if CDI<0.7, the synergistic effect is very significant; if CDI=1, the effect of the two drugs in combination is the sum of the effects of the two drugs; if CDI>1, the two drugs have an antagonistic effect.

MDA-MB-361 = assay: as above; assay type: cell-based; set-up: key: CDI = AB/(A×B); <1 synergistic; settings: compound 5 μM + Lapatinib 1 μM, 72 h; natural Lapatinib-resistant human breast cancer cells; CDI<1 synergistic
Method: as §1, §2, §3, §4, §5, §6

MDA-MB-453 = assay: as above; assay type: cell-based; set-up: key: CDI = AB/(A×B); <1 synergistic; settings: compound 5 μM + Lapatinib 1 μM, 72 h; natural Lapatinib-resistant human breast cancer cells; CDI<1 synergistic
Method: as §1, §2, §3, §4, §5, §6

SK-BR3 = assay: as above; assay type: cell-based; set-up: key: CDI = AB/(A×B); <1 synergistic; settings: compound 5 μM + Lapatinib 1 μM, 72 h; Lapatinib-sensitive human breast cancer cells; CDI<1 synergistic
Method: as §1, §2, §3, §4, §5, §6

BT/Lap^R1.0 = assay: as above; assay type: cell-based; settings: compound 5 μM + Lapatinib 1 μM, 72 h; secondary Lapatinib-resistant human breast cancer cells; CDI<1 synergistic
Method: as §1, §2, §3, §4, §5, §6

SK/Lap^R1.0 = assay: as above; assay type: cell-based; settings: compound 5 μM + Lapatinib 1 μM, 72 h; secondary Lapatinib-resistant human breast cancer cells; CDI<1 synergistic
Method: as §1, §2, §3, §4, §5, §6

Hsp70 ATPase = molecular target: T1, Hsp70 ATPase (Homo sapiens, UniProt P0DMV8); assay: Inhibition of Hsp70 ATPase activity (malachite green); assay type: biochemical; settings: for inhibition at 200 µM / Inhibitory rate (%) on activity of Hsp70 ATPase: repeated screening carried out twice, Hsp70/Hsp40, 1 mM ATP; for inhibition at 200 µM: read-out: Inhibitory rate (%) on activity of Hsp70 ATPase; for inhibition at 200 µM / Inhibitory rate (%) on activity of Hsp70 ATPase / inhibitory rate of Hsp70 ATPase activity: 200 μM; for dose-response relationship with respect to inhibition of Hsp70 ATPase activity: first preliminary screening, 200, 100, 50, 25 and 12.5 μM with Hsp70/Hsp40, FIGS. 1, 2; for inhibitory rate of Hsp70 ATPase activity: preliminary screening, after incubation for 30 min
T1 construct: made in house; host or cells: E. coli
Method: (1) Protein: Humanized Hsp70, Hsp40, expressed by E. coli.
(2) Sample to be tested: 26 compound solids with different colors and states. Positive drugs AZ (CAS:1054543-47-3) and VER 155008 (CAS: 1134156-31-2) were synthesized in the laboratory.
(4) ATPase Assay buffer: • 0.017% Triton X-100; • 100 mM Tris-HCl; • 20 mM KCl; • 6 mM MgCl2, pH 7.4.
1) 13.08 μl DnaK (0.15 mg/mL, 2.14 μM), 1.96 μl DnaJ (1 mg/mL, 25 μM) were dissolved in 7.96 μl Assay Buffer (0.017% Triton X-100, 100 mM Tris-HCl, 20 mM KCl, and 6 mM MgCl2, pH 7.4), and the resultant solution was added to each well of the 96 well plate;
2) to each well of the 96 well plate, 1 μL sample to be tested (5 mM) or DMSO (solvent) was added, and vortexed with a Vortex agitator for 10 min; and then standing at 37° C. for 30 min;
3) to each well, 1 μL 25 mM ATP was added, to trigger the enzymatic reaction; (in each well, the final reaction volume was 25 μL, the final concentration of DnaK was 1.12 μM, the final concentration of DnaJ was 1.96 μM, the final concentration of DMSO was 4%, the final concentration of Triton X-100 was 0.01%, the final concentration of ATP was 1 mM, and the final concentration of sample to be tested was 200 μM), the enzymatic reaction was carried out at 37° C. for 3 h;
4) 80 μL Malachite green staining solution was then added to each well, and was vortexed gently;
5) 10 μL of 34% citrate sodium was then added immediately, and vortexed gently, to stop the ATP hydrolysis not caused by ATPase;
6) the resultant mixture was mixed thoroughly at 37° C. for 15 min, and OD620 was measured.
The inhibitory rate of Hsp70 ATPase activity is calculated in accordance with the following formula: Inhibitory rate (%)=(DMSO well OD−Experimental well OD)/(DMSO well OD−Blank well OD)×100
Criteria for preliminary screening: during preliminary screening, an example compound is regarded as effective in inhibition as long as its inhibitory rate is above 20% for Hsp70 ATPase at 200 μM.

T1 sequence (P0DMV8 2-641 limits assumed): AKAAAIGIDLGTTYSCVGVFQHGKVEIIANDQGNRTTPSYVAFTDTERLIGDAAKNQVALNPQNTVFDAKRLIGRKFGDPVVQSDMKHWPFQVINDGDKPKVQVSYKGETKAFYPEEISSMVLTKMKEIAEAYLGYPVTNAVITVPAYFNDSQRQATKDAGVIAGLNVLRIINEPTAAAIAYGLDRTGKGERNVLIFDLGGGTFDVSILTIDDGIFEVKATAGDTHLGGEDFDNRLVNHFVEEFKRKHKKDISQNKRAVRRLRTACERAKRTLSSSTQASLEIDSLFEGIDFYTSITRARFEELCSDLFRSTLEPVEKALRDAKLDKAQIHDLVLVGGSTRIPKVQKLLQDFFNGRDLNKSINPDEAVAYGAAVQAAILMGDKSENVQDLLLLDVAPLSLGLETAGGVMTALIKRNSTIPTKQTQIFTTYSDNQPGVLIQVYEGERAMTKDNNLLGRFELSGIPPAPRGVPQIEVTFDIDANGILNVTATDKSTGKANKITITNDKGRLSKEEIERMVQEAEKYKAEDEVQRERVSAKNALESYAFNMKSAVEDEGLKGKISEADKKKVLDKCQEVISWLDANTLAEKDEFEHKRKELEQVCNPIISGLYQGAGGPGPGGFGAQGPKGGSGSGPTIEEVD

Structure (SMILES)	CDI of example compounds and Lapatinib, BT474 (BT474)	CDI of example compounds and Lapatinib, MDA-MB-361 (MDA-MB-361)	CDI of example compounds and Lapatinib, MDA-MB-453 (MDA-MB-453)	CDI of example compounds and Lapatinib, SK-BR3 (SK-BR3)	CDI of example compounds and Lapatinib, BT/Lap^R1.0 (BT/Lap^R1.0)	CDI of example compounds and Lapatinib, SK/Lap^R1.0 (SK/Lap^R1.0)	inhibition at 200 µM (Hsp70 ATPase)	Inhibitory rate (%) on activity of Hsp70 ATPase (Hsp70 ATPase)	dose-response relationship with respect to inhibition of Hsp70 ATPase activity (Hsp70 ATPase)	inhibitory rate of Hsp70 ATPase activity (Hsp70 ATPase)
COc1cc(/C=C/C(=O)NC(CC(C)(C)C)NC(=S)Nc2ccccn2)cc(OC)c1OC (stereo not shown) [Example 34, (2E)-N-[3,3-dimethyl-1-(3-pyridin-2-ylthioureido)butyl]-3-(3,4,5-trimethoxyphenyl) acrylamide]	0.98	0.87	1.41	0.98	1	0.85	9.36%	–	–	–
CC(C)(C)C(NC(=O)/C=C/c1ccccc1)NC(=S)NC1CCCCC1 (stereo not shown) [Example 56, N-[1-(3-cyclohexylthioureido)-2,2-dimethylpropyl] cinnamamide]	0.77	0.96	1.32	1.19	1.21	1	21.4%	–	–	–
COc1cc(/C=C/C(=O)NC(NC(=S)Nc2ccccn2)C2CC2)cc(OC)c1OC (stereo not shown) [Example 30, (2E)-N-[cyclopropyl-(3-pyridin-2-ylthioureido)-methyl]-3-(3,4,5-trimethoxyphenyl) acrylamide]	0.94	0.85	1.28	0.94	0.93	0.82	-5.66%	–	–	–
COc1ccc(-c2nc(-c3cc(C(F)(F)F)cc(C(F)(F)F)c3)n(Cc3ccc(C(N)=O)cc3)c2-c2ccc(OC)cc2)cc1 [AZ, reference compound]	–	–	–	–	–	–	–	53.04%	dose-response relationship	53.13%
CC(C)C(NC(=O)/C=C/c1ccccc1)NC(=S)NC1CCCCC1 (stereo not shown) [Example 55, N-[1-(3-cyclohexylthioureido)-2-methylpropyl] cinnamamide]	0.89	0.94	1.41	1.2	1.01	1.8	25.9%	–	–	–
N#Cc1ccc(COC[C@H]2O[C@@H](n3c(NCc4ccc(Cl)c(Cl)c4)nc4c(N)ncnc43)[C@H](O)[C@@H]2O)cc1 [VER155008, reference compound]	–	–	–	–	–	–	–	43.03%	dose-response relationship	38.18%
